Residues, ends and D or L forms follow the SMILES beside them. *: point of attachment. Boc = CC(C)(C)OC(=O)*
First: O=C(CCC(=O)N1CCCCC1c1ccccc1)c1ccc2c(c1)CCNCC2 (stereo unspecified)
Second: COc1ccc(C(=O)n2c3c(c4cc(C)ccc42)CC(C(=O)O)CC3)cc1 (stereo unspecified)
The melting point of the first is lower: 114 °C for the first, 172 to 173 °C for the second.

First: O=C(CC1CCCCC1)NC1CC(C(=O)O)Nc2cc(Cl)cc(Cl)c21 (stereo unspecified)
Second: O=C(Nc1ccc(Cl)cn1)c1cc(Cl)ccc1NCC1CCN(C2CCCCCC2)CC1
The melting point of the first is higher: 197 to 200 °C for the first, 170 to 172 °C for the second.

First: CC(C)CC1(CCCCN2CCN(c3cccc4c3OCCO4)CC2)C(=O)Nc2ccccc21 (stereo unspecified)
Second: CN1CCN(CCC2C(=O)NC(c3ccc(Cl)cc3)c3ccccc32)CC1 (stereo unspecified)
The melting point of the first is lower: 152 to 154 °C for the first, 201 to 205 °C for the second.

Compared with `COC(=O)c1sc2ccc(C#N)cc2c1N`, `N#Cc1ccc2c(c1)S(=O)(=O)c1ccccc1C2=O` is higher in melting point: 248 °C for the first, 282 to 283 °C for the second.

First: O=C(c1cc2ccccc2cn1)N(O)CCc1ccccc1
Second: CCc1cnc(NC(=O)C(c2ccccc2)c2ccccc2)o1
The melting point of the first is lower: 90 to 95 °C for the first, 148 to 149 °C for the second.

Compared with `COc1cc(C)c2c(c1OC)CCCC2=O`, `COc1c(Br)cc(C2CC=CCC2[N+](=O)[O-])c(OC)c1OC` (stereo unspecified) is higher in melting point: 58 to 62 °C for the first, 134 to 136 °C for the second.

Compared with `CC(=O)c1csc(-c2nc3n(c2-c2ccncc2)CCC3)c1`, `CCOC(=O)c1nc(NC)sc1-c1ccncc1` is lower in melting point: 152 to 154 °C for the first, 136 to 138 °C for the second.

Compared with `Cc1c(Sc2ccc(Cl)cc2)c2cc(S(C)(=O)=O)ccc2n1CC(=O)O`, `Cc1nc(-c2ccc(-c3ccco3)cc2)c(-c2ccc(S(C)(=O)=O)cc2)o1` is lower in melting point: 185 to 187 °C for the first, 143 to 144 °C for the second.

Compared with `Oc1ccc(-c2nc3ccc(O)cc3s2)cc1`, `O=C1c2ccccc2-c2c1c(Cl)nc1cc(O)ccc21` is higher in melting point: 284 to 286 °C for the first, > 300 °C for the second.

First: CC(=C1SC(=O)NC1=O)c1cccc(OCCOc2c(-c3ccc(F)cc3C)n(C)c3ccccc3c2=O)c1
Second: CCN(CC)CCOc1cccc2c1c1cccc(Cl)c1n2Cc1ccc(F)cc1
The melting point of the first is higher: 225 to 226 °C for the first, 104 to 106 °C for the second.

First: Cc1cc(-n2ccnc2)c2cccc(OCc3c(Cl)ccc(S(=O)(=O)N4CCC[C@H]4C(=O)N4CCN(c5ccncc5)CC4)c3Cl)c2n1
Second: O=S(=O)(c1ccc(Nc2ccnc3cc(C(F)(F)F)ccc23)cc1)N1CCN(c2ccccn2)CC1
The melting point of the first is lower: 136 °C for the first, 202 to 203 °C for the second.

First: CCCCOC(=O)COc1ccc(C(=O)Nc2ccccc2Sc2cccc(C)c2-c2nnn[nH]2)cc1
Second: COc1ccccc1CNC(=O)c1c(-c2ccc(C)cc2)c2cccnc2c(=O)n1CCCCO
The melting point of the first is lower: 150 to 151 °C for the first, 205 to 206 °C for the second.

First: Cc1ccc2c(c1)C(=O)C(=O)N2CC(N)=O
Second: CCOC(=O)C(=O)c1cc(Cl)cc2cccnc12
The melting point of the first is higher: 171 to 172 °C for the first, 107 to 110 °C for the second.

Compared with `CCOc1ccc(C(=O)OC)c(Cl)n1`, `CCCOc1ccc(C(=O)C=CC(=O)O)cc1OC` is higher in melting point: 46 to 48 °C for the first, 136 °C for the second.

Compared with `CSc1nc(O)c(C=O)c(O)n1`, `COC(=O)CCCC(C)(C)c1ccc(O)c(C(C)=O)c1O` is lower in melting point: > 250 °C for the first, 94 to 97 °C for the second.

Compared with `COC(=O)c1ccc(-c2nccc3ccn(S(=O)(=O)c4ccc(OC)cc4)c23)cc1`, `CC(C)n1nc(OCC(=O)c2ccc(F)cc2)c(-c2ccc(F)cc2)c1-c1ccc(S(C)(=O)=O)cc1` is higher in melting point: 144 to 146 °C for the first, 184 to 185 °C for the second.

First: CC(CCCCc1ccccc1)c1cc(O)c2c(c1)OC(C)(C)C1CCC(=O)C=C21 (stereo unspecified)
Second: CCCCCCCCCCCCc1cnn(C(C(=O)Nc2c(OC)cc(OC)cc2OC)c2ccccc2)c1 (stereo unspecified)
The melting point of the first is higher: 204 to 208 °C for the first, 77 to 79 °C for the second.

First: COCC(=O)Nc1ccc2ncnc(Nc3cc(Cl)c(Cl)cc3F)c2c1
Second: Fc1ccccc1-c1noc2c(Cl)c(OCc3nnn[nH]3)ccc12
The melting point of the first is higher: 204 to 206 °C for the first, 198 to 200 °C for the second.

Compared with `NCCC(=O)NCCCCCNC(=O)Cc1cccc(O)c1`, `COc1cccc(OC)c1C(=O)NCCSCc1cccc(Cl)c1` is lower in melting point: 109 to 115 °C for the first, 90 to 91 °C for the second.

First: O=C1N(Cc2cnccn2)c2ccccc2C12COc1cc3c(cc12)CCO3 (stereo unspecified)
Second: C#Cc1ccc2c(c1)C(Cc1ccnc(F)c1)(Cc1ccnc(F)c1)c1cccnc1-2
The melting point of the first is higher: 143 to 144 °C for the first, 139 to 140 °C for the second.

First: CC(=O)n1cc(-c2ccccc2)nc1-c1ccccc1C
Second: Nc1nc2ccccc2c2c1ncn2CCCC(=O)c1ccccc1
The melting point of the first is lower: 102 to 104 °C for the first, 209 to 211 °C for the second.

First: COc1cc(COc2nn(Cc3ccc(Oc4ccccc4)cc3)cc2C(N)=O)ccc1OCc1nc(-c2ccco2)oc1C
Second: Cc1sc(-c2ccccc2)nc1COc1cc(COc2ncccc2CC(=O)O)on1
The melting point of the first is lower: 105 to 106 °C for the first, 109 to 110 °C for the second.

Compared with `CN(C)CCC(=O)OC1c2ccccc2C(=O)N1c1ccc2ccc(Cl)nc2n1` (stereo unspecified), `NC(=O)c1nc(CCl)n(-c2ccc(Cl)cc2C(=O)c2ccccc2)n1` is lower in melting point: 150 °C for the first, 128 to 130 °C for the second.

First: CS(=O)(=O)Nc1cccc(Nc2nc(NCc3ncc[nH]3)c3nc[nH]c3n2)c1
Second: CS(=O)(=O)Nc1cc2occ(S(C)(=O)=O)c(=O)c2cc1Oc1ccccc1
The melting point of the first is lower: 216 to 220 °C for the first, > 250 °C for the second.

First: CCC(CC)N1C(=O)CCc2c1cc(C)nc2Nc1c(C)cc(C)cc1C
Second: CCOC(=O)c1c(C)cc2c(c1C)c(=O)n(-c1ccccc1Cl)c(=O)n2CCCN(C)C
The melting point of the first is lower: 44 to 46 °C for the first, 155 to 156 °C for the second.

First: CN1C(=O)CCC2=C1CCc1ccc(F)cc12
Second: CN1C(=O)CC[C@]2(C)c3ccc(-c4ccc(O)c(Cl)c4)cc3CC[C@@H]12
The melting point of the first is lower: 122 °C for the first, 245 °C for the second.

First: CNCCOc1ccc(NC(=O)c2ccc(N3CCNCC3)cc2)c(C)c1
Second: CCCC(Cc1ccc(OCCN2CCOCC2)cc1)(C(=O)NO)S(=O)(=O)c1ccc(OC)cc1 (stereo unspecified)
The melting point of the first is higher: 136 to 137 °C for the first, 101 °C for the second.

First: CC1(C)CCC(=O)Nc2ccc(N)cc21
Second: CC1(C)CCC(C)(C)c2cc(C(=O)c3cccc(I)c3)ccc21
The melting point of the first is higher: 168 °C for the first, 130 to 131 °C for the second.

Compared with `Cc1cccnc1NC(=O)C(C)(C)C`, `COC(=O)c1ccc(Cn2nc(C(C)(C)C)cc2C(C)(C)C)cc1` is higher in melting point: 90 to 92 °C for the first, 135 to 136 °C for the second.

First: O=C(Nc1cccc(C(F)(F)F)c1)OCC1(COC(=O)Nc2cccc(C(F)(F)F)c2)CSc2ccccc2C1=O
Second: Cn1cc(Oc2ccccc2)c(=S)c(-c2cccc(C(F)(F)F)c2)c1
The melting point of the first is lower: 58 to 63 °C for the first, 127 to 131 °C for the second.

First: COc1ccc(-c2nc3ncn(C)c(=S)n3n2)cc1
Second: Cn1ncc(/C=C/C(=O)Nc2ccc(Cc3nn(C)c(=O)o3)cc2)c1-c1ccc(F)cc1
The melting point of the first is higher: > 300 °C for the first, 200 to 201 °C for the second.

`CC(NC(=O)C(Cc1ccc(O)cc1)NC(=O)OC(C)(C)C)C(=O)NCC(=O)O` (stereo not drawn) (Boc-Tyr-Ala-Gly-OH; configuration not given here) and `CC(C)[C@H](NC(=O)N(C)Cc1cccnc1)C(=O)N[C@@H](Cc1ccccc1)C[C@H](O)[C@H](Cc1ccccc1)NC(=O)[C@@H](NC(=O)N(C)Cc1cccnc1)C(C)C` cannot be ordered by melting point: 194 to 197 °C for the first, 193 to 196 °C for the second.

First: CCOC(=O)c1cnc(CC)nc1NCc1ccc(-c2ccccc2-c2nnnn2C(c2ccccc2)(c2ccccc2)c2ccccc2)cc1
Second: Cc1ccc(-n2c(-c3cc(-c4ccccc4)c(N4CCOCC4)s3)nc3ccccc3c2=O)cc1
The melting point of the first is lower: 134 to 136 °C for the first, 207 to 209 °C for the second.

First: Cc1nnc(-c2ccc3occ(-c4ccc(S(=O)CF)cc4)c3c2)o1 (stereo unspecified)
Second: C=Cc1cccc(-n2ncc(-c3ccc(S(C)(=O)=O)cc3)c(-c3ccc(F)cc3)c2=O)c1
The melting point of the first is lower: 173 to 174 °C for the first, 182 to 183 °C for the second.

First: CSCCCn1c(C)c(C(=O)c2cccc(Cl)c2Cl)c2cccc(Br)c21
Second: CCOC(=O)Cn1c2c(c3ccc(Cl)c(Cl)c31)CCN(C(=O)OC(C)(C)C)CC2
The melting point of the first is lower: 119 °C for the first, 132 to 135 °C for the second.

First: COCS[C@H](C)[C@](O)(Cn1cncn1)c1ccc(Cl)cc1
Second: C[C@@H](n1nccn1)[C@](O)(Cn1cncn1)c1ccc(F)cc1F
The melting point of the first is higher: 122 °C for the first, 92 to 95 °C for the second.

First: CC(=O)C(CCC(=O)O)(CCC(=O)O)C(C)=O
Second: CCC(=O)NCCSC(=O)CC
The melting point of the first is higher: 176 °C for the first, 48 to 49 °C for the second.

First: CC(=O)Nc1cccc(OCCCN2CCC(c3noc4cc(F)ccc34)CC2)c1
Second: CCOC(=O)c1cn(-c2ccccc2)c2oc(CN3CCOCC3)cc2c1=O
The melting point of the first is lower: 184 to 186 °C for the first, 210 to 212 °C for the second.

First: Clc1ccc(-n2nc(C3CC3)cc2C2CC2)nn1
Second: CC(C)(C)OC(=O)N1CCC(C2=C(C#N)C(c3cccc4nonc34)c3c[nH]nc3N2)CC1 (stereo unspecified)
The melting point of the first is lower: 102 to 105 °C for the first, 226 °C for the second.

Compared with `CCCOCCOc1ccc(COc2ccc3c(c2)C=C(C(=O)Nc2ccc(CN(C)C4CCOCC4)cc2)CCS3(=O)=O)cc1OCC`, `COc1ccc(C(=O)Nc2ccccc2)cc1NS(=O)(=O)c1ccccc1` is higher in melting point: 146 to 147 °C for the first, 190 to 194 °C for the second.

Compared with `CS(=O)(=O)Nc1cnc(NC(=O)[C@H](CC2CCCC2)c2ccc(S(C)(=O)=O)c(Cl)c2)cn1`, `N#Cc1cccc(NC(=O)NCc2cccc3c2C(=O)N(C2CCC(=O)NC2=O)C3=O)c1` (stereo unspecified) is higher in melting point: 108 to 110 °C for the first, 228 to 230 °C for the second.

First: COc1cc2ncc(C#N)c(Nc3cccc(C(F)(F)F)c3)c2cc1OC
Second: NC(=O)c1cnn2c1NCC=C2c1cccc(C(F)(F)F)c1
The melting point of the first is higher: 190 to 193 °C for the first, 157 to 160 °C for the second.

First: CCCCCCCCCCc1cc2c(s1)NC(=O)CN=C2c1ccccc1C
Second: CC(=O)Nc1c(C(=O)c2cccc(C(N)=O)c2)[nH]c2cc(Cl)ccc12
The melting point of the first is lower: 100 to 102 °C for the first, 243 to 247 °C for the second.

Compared with `COC(=O)Nc1cc(C)c(Br)cc1I`, `CON(c1ccc([N+](=O)[O-])cc1[N+](=O)[O-])S(=O)(=O)c1ccc(C)cc1` is higher in melting point: 140 to 141 °C for the first, 146 to 148 °C for the second.

First: CCc1c(C#N)oc(=O)n1S(=O)(=O)c1c(C)noc1C
Second: C=CCC(C#N)(c1ccc(F)cc1)c1ccccc1F (stereo unspecified)
The melting point of the first is lower: 117 to 122 °C for the first, 215 to 219 °C for the second.

Compared with `O=C=Nc1c(Cl)c(Cl)cc(Cl)c1Cl`, `NNc1c(Cl)cc(C(F)(F)F)c(F)c1Cl` is lower in melting point: 62.5 to 63.5 °C for the first, 50 to 51 °C for the second.

First: Nc1nnc(-c2cccc(OC(F)(F)C(F)F)c2)c(N)n1
Second: FC(F)(F)Sc1cc[nH]c1-c1ccc(Cl)cc1
The melting point of the first is higher: 199 to 200 °C for the first, 59 to 64 °C for the second.

Compared with `CN1Sc2sccc2C=C1CN1CCOCC1`, `O=C(Nc1cccc(O)c1)O[C@@H]1CN=C(c2ccccc2)O[C@H]1c1ccccc1` (racemic) is higher in melting point: 104 to 106 °C for the first, 170 °C for the second.
